From PubChem BioAssay (NCI)
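Tested at 5 concentrations; 48 h exposure; 96-well plates; endpoints linearly interpolated, else capped at highest concentration. At the GI50, growth is halved. TGI marks complete inhibition of growth.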

How the values were obtained:
Test in all cases: inhibition of tumour cell growth, NCI panel, 48 h
DMS 114 small cell lung = system: DMS 114 small cell lung
NCI-H460 lung = system: NCI-H460 lung
OVCAR-3 ovarian = system: OVCAR-3 ovarian
HCT-15 colon = system: HCT-15 colon
NCI-H522 lung = system: NCI-H522 lung
EKVX NSCLC = system: EKVX NSCLC
UO-31 renal = system: UO-31 renal
MALME-3M melanoma = system: MALME-3M melanoma
SNB-75 CNS = system: SNB-75 CNS
HT29 colon = system: HT29 colon
MOLT-4 leukemia = system: MOLT-4 leukemia
HOP-92 NSCLC = system: HOP-92 NSCLC
SR leukemia = system: SR leukemia
HL-60(TB) leukemia = system: HL-60(TB) leukemia
TK-10 renal = system: TK-10 renal
ACHN renal = system: ACHN renal
SF-268 CNS = system: SF-268 CNS
SK-MEL-28 melanoma = system: SK-MEL-28 melanoma
M14 melanoma = system: M14 melanoma
UACC-62 melanoma = system: UACC-62 melanoma
LOX IMVI melanoma = system: LOX IMVI melanoma
RXF 393 renal = system: RXF 393 renal
OVCAR-5 ovarian = system: OVCAR-5 ovarian
SF-539 CNS = system: SF-539 CNS
RPMI-8226 leukemia = system: RPMI-8226 leukemia
UACC-257 melanoma = system: UACC-257 melanoma
KM12 colon = system: KM12 colon
786-0 renal = system: 786-0 renal
K-562 leukemia = system: K-562 leukemia
DLD-1 colon = system: DLD-1 colon
HCT-116 colon = system: HCT-116 colon
SF-295 CNS = system: SF-295 CNS
OVCAR-4 ovarian = system: OVCAR-4 ovarian
CCRF-CEM leukemia = system: CCRF-CEM leukemia
NCI-H226 lung = system: NCI-H226 lung
CAKI-1 renal = system: CAKI-1 renal
KM20L2 colon = system: KM20L2 colon
A498 renal = system: A498 renal
SW-620 colon = system: SW-620 colon
A549 NSCLC = system: A549 NSCLC
OVCAR-8 ovarian = system: OVCAR-8 ovarian
LXFL 529 NSCLC = system: LXFL 529 NSCLC
HCC-2998 colon = system: HCC-2998 colon
COLO 205 colon = system: COLO 205 colon
SK-MEL-5 melanoma = system: SK-MEL-5 melanoma
SN12C renal = system: SN12C renal
SNB-19 CNS = system: SNB-19 CNS
NCI-H23 lung = system: NCI-H23 lung
SK-OV-3 ovarian = system: SK-OV-3 ovarian
SK-MEL-2 melanoma = system: SK-MEL-2 melanoma
U251 CNS = system: U251 CNS
DMS 273 small cell lung = system: DMS 273 small cell lung
IGROV1 ovarian = system: IGROV1 ovarian
SNB-78 CNS = system: SNB-78 CNS

CCC[CH2][Sn]1([CH2]CCC)[O]C(=O)c2cc(C)ccc2[O]1
TGI (DMS 114 small cell lung): 771 nM | GI50 (NCI-H460 lung): 1540 nM | TGI (NCI-H460 lung): 2870 nM | GI50 (OVCAR-3 ovarian): 614 nM | TGI (OVCAR-3 ovarian): 1910 nM | GI50 (HCT-15 colon): 446 nM | TGI (HCT-15 colon): 1450 nM | GI50 (NCI-H522 lung): 85.9 nM | TGI (NCI-H522 lung): 232 nM | GI50 (EKVX NSCLC): 579 nM | TGI (EKVX NSCLC): 1940 nM | GI50 (UO-31 renal): 1190 nM | TGI (UO-31 renal): 2450 nM | GI50 (MALME-3M melanoma): 112 nM | TGI (MALME-3M melanoma): 938 nM | GI50 (SNB-75 CNS): 291 nM | TGI (SNB-75 CNS): 1200 nM | GI50 (HT29 colon): 1240 nM | TGI (HT29 colon): 2560 nM | GI50 (MOLT-4 leukemia): 301 nM | TGI (MOLT-4 leukemia): 1090 nM | GI50 (HOP-92 NSCLC): 327 nM | TGI (HOP-92 NSCLC): 1650 nM | GI50 (SR leukemia): 295 nM | TGI (SR leukemia): 1280 nM | GI50 (HL-60(TB) leukemia): 164 nM | TGI (HL-60(TB) leukemia): 444 nM | GI50 (TK-10 renal): 385 nM | TGI (TK-10 renal): 1180 nM | GI50 (ACHN renal): 457 nM | TGI (ACHN renal): 1590 nM | GI50 (SF-268 CNS): 268 nM | TGI (SF-268 CNS): 959 nM | GI50 (SK-MEL-28 melanoma): 682 nM | TGI (SK-MEL-28 melanoma): 2030 nM | GI50 (M14 melanoma): 342 nM | TGI (M14 melanoma): 1500 nM | GI50 (UACC-62 melanoma): 465 nM | TGI (UACC-62 melanoma): 1560 nM | GI50 (LOX IMVI melanoma): 309 nM | TGI (LOX IMVI melanoma): 1130 nM | GI50 (RXF 393 renal): 283 nM | TGI (RXF 393 renal): 555 nM | GI50 (OVCAR-5 ovarian): 1660 nM | TGI (OVCAR-5 ovarian): 3040 nM | GI50 (SF-539 CNS): 521 nM | TGI (SF-539 CNS): 1660 nM | GI50 (RPMI-8226 leukemia): 193 nM | TGI (RPMI-8226 leukemia): 599 nM | GI50 (UACC-257 melanoma): 419 nM | TGI (UACC-257 melanoma): 1560 nM | GI50 (KM12 colon): 1150 nM | TGI (KM12 colon): 2700 nM | GI50 (786-0 renal): 215 nM | TGI (786-0 renal): 844 nM | GI50 (K-562 leukemia): 222 nM | TGI (K-562 leukemia): 1160 nM | GI50 (DLD-1 colon): 537 nM | TGI (DLD-1 colon): 1830 nM | GI50 (HCT-116 colon): 1120 nM | TGI (HCT-116 colon): 2330 nM | GI50 (SF-295 CNS): 628 nM | TGI (SF-295 CNS): 1990 nM | GI50 (OVCAR-4 ovarian): 707 nM | TGI (OVCAR-4 ovarian): 2060 nM | GI50 (CCRF-CEM leukemia): 167 nM | TGI (CCRF-CEM leukemia): 561 nM | GI50 (NCI-H226 lung): 1850 nM | TGI (NCI-H226 lung): 3370 nM | GI50 (CAKI-1 renal): 169 nM | TGI (CAKI-1 renal): 785 nM | GI50 (KM20L2 colon): 1350 nM | TGI (KM20L2 colon): 2640 nM | GI50 (A498 renal): 565 nM | TGI (A498 renal): 1790 nM | GI50 (SW-620 colon): 211 nM | TGI (SW-620 colon): 574 nM | GI50 (A549 NSCLC): 1920 nM | TGI (A549 NSCLC): 3320 nM | GI50 (OVCAR-8 ovarian): 725 nM | TGI (OVCAR-8 ovarian): 2050 nM | GI50 (LXFL 529 NSCLC): 129 nM | TGI (LXFL 529 NSCLC): 336 nM | GI50 (HCC-2998 colon): 670 nM | TGI (HCC-2998 colon): 1980 nM | GI50 (COLO 205 colon): 460 nM | TGI (COLO 205 colon): 1500 nM | GI50 (SK-MEL-5 melanoma): 854 nM | TGI (SK-MEL-5 melanoma): 2110 nM | GI50 (SN12C renal): 547 nM | TGI (SN12C renal): 1860 nM | GI50 (SNB-19 CNS): 700 nM | TGI (SNB-19 CNS): 1930 nM | GI50 (NCI-H23 lung): 332 nM | TGI (NCI-H23 lung): 1290 nM | GI50 (SK-OV-3 ovarian): 1580 nM | TGI (SK-OV-3 ovarian): 2990 nM | GI50 (SK-MEL-2 melanoma): 303 nM | TGI (SK-MEL-2 melanoma): 808 nM | GI50 (U251 CNS): 462 nM | TGI (U251 CNS): 1540 nM | GI50 (DMS 273 small cell lung): 519 nM | TGI (DMS 273 small cell lung): 1730 nM | GI50 (IGROV1 ovarian): 924 nM | TGI (IGROV1 ovarian): 2210 nM | GI50 (SNB-78 CNS): 368 nM | TGI (SNB-78 CNS): 1010 nM
